Test results reported in publication PMC7717705, “Topoisomerases inhibition and DNA binding mode of daunomycin–oligoarginine conjugate” (Journal of Enzyme Inhibition and Medicinal Chemistry, 2020).

Experiments:
h-TopoIIα = h-TopoIIα DNA relaxation assay (negatively supercoiled pBs plasmid, agarose gel); assay type: biochemical, human; conditions: drug 1.2 μM; h-TopoIIα 0.4 units; pBs 7.5 nM; drug-DNA pre-incubation 10 min at 4 °C, then 30 min at 30 °C; pH 7.9, 1 mM ATP; 1.2% agarose gel, ethidium bromide; three independent assays
Description: (§1) Human topoisomerase IIα (h-TopoIIα) was purchased from Affymetrix (product number 78303) and stored at −20 °C. Human Topoisomerase I (Sigma, St. Louis, MO). pBluescript (pBs) negatively supercoiled plasmid was directly extracted from an over-night E. coli cell culture by Invitrogen HiPure Plasmid Midi prep Kit according to the instruction of the manufacturers.
(§2) DNA relaxation assays were performed as previously described[24]^,[25] using the negative supercoiled pBluScript plasmid (pBS) purified from Escherichia coli as a substrate of DNA topoisomerases.
For h-TopoII-α assay the enzyme (0.4 units) was incubated for 30 min at 30 °C with negatively supercoiled pBS plasmid (7.5 nM), in a final volume of 20 µl of 1× reaction Buffer (10 mM Tris-HCl, pH 7.9, 50 mM NaCl, 50 mM KCl, 0.1 mM EDTA, 5 mM MgCl2, 15 µg/ml BSA, 1 mM ATP). […]
(§3) All reactions were stopped by the addition of SDS to a final concentration of 1% and the products were analysed by electrophoresis on a 1.2% agarose gel in presence of 0.5X Tris-Borate EDTA buffer. […] Finally the DNA bands were visualised using a BioRad Versadoc imaging system and quantified by Quantity One® software. The relative intensity of each band in the experiment was measured and used to calculate the amount of total DNA and the fraction of total products. For each condition the relaxation activity was expressed as a percentage of DNA products on total DNA[26].

h-TopoI = h-TopoI DNA relaxation assay (negatively supercoiled pBluescript plasmid, agarose gel); assay type: biochemical, human; conditions: drug 1.2 uM (not saturating); h-TopoI 100 nM; plasmid 7.5 nM; drug-DNA pre-incubation 10 min at 4 °C, then 60 min at 37 °C; pH 7.0; 1.2% agarose gel, ethidium bromide
Description: as §1, §2
For h-TopoI assay the enzyme (100 nM), was incubated for 60 min at 37 °C with negatively supercoiled pBluescript plasmid (7.5 nM) in a final volume of 20 µL of 1X reaction Buffer (10 mM Tris-HCl, pH 7.0, 100 mM NaCl, 0.1 mM NaEDTA, 10 mM MgCL2 and 50 µg/ml BSA). […]
as §3

[1] = Fluorescence emission spectrum; assay type: physicochemical; conditions: drug 10 µM in 20 mM Tris buffer, pH 7.5; λ = 500–750 nm
Description: (§4) Fluorescence measurements of Dau and Dau-Arg6 were carried out with a JASCO spectrofluorimeter (FP8200) using Quartz cells of 1 cm. Spectra were recorded at drug concentration of 10 µM in a final volume of 1 ml of 20 mM Tris buffer (pH 7.5).

DNA plasmid (pBs) = test: Fluorescence quenching titration with plasmid DNA; assay type: binding; conditions: drug 10 µM, pBs plasmid 5 to 40 nM, 20 mM Tris pH 7.5, 5 min equilibrium, room temperature
Description: as §4
For quenching experiment fluorescence titrations were conducted by keeping the concentration of drugs constant and varying the concentration of pBs plasmid from 5 to 40 nM. The spectroscopic measurements were recorded after 5 min to reach the equilibrium between the drugs and DNA. The spectra were recorded at room temperature in the wavelengths range of λ = 500–700 nm.

Calf Thymus-DNA (ctDNA) = test: DNA thermal melting monitored by circular dichroism; assay type: binding; conditions: 4 µM drug, ctDNA 0.2 mg/mL, Tris–HCl buffer, λ = 260 nm
Description: Melting studies were performed on a JascoJ-810 spectropolarimeter as described above by raising the temperature from 5 to 90 °C in 1 °C/min increments using a circulating water bath and monitoring the profiles at λ = 260 nm.
The DNA thermal melting was measured by monitoring the changes of HT[V] signal with temperature. Melting temperatures (Tm) were determined for each transition data by fitting sigmoidal curves using Boltzmann equations and obtaining good R-squared values (>0.95).

Calf Thymus DNA (ctDNA) = test: Circular dichroism / induced circular dichroism (ICD) of ctDNA; assay type: binding
Description: Circular dichroism (CD) measurements were performed on a JascoJ-810 spectropolarimeter using a 0.1 cm path-length quartz cuvette at room temperature and the following parameters: three scans at a speed of 20 nm/min, 3 accumulations, 4 s time constant, 1 nm band width and 0.2 nm data pitch.
The spectral bandwidth was set up at 1 nm in the wavelength range of λ = 225–300 nm. The CD spectra of Calf Thymus DNA (ctDNA; 0.2 mg/mL) with or without drug (at selected concentrations) were measured under a nitrogen atmosphere using a 10 mM Tris-HCl buffer at pH 7.5. Results are presented as a mean of three scans and the buffer background was electronically subtracted from each measurement.
ICD measurements were recorded by keeping the concentration of ctDNA constant (0.2 mg/mL) and increasing drugs concentrations from 0 to 120 µM.

## COc1cccc2c1C(=O)c1c(O)c3c(c(O)c1C2=O)C[C@@](O)(C(C)=O)C[C@@H]3O[C@H]1C[C@H](N)[C@H](O)[C@H](C)O1 [Dau, daunomycin]
h-TopoIIα
  inhibition of the total h-TopoIIα activity (DNA relaxation): 50%
h-TopoI
  inhibition of the TopoI activity (DNA relaxation): 20%
[1]
  emission maximum λmax: 596 nm
DNA plasmid (pBs)
  fluorescence intensity on titration with DNA plasmid: decreases with increasing concentration of DNA
Calf Thymus-DNA (ctDNA); 5 to 90 °C at 1 °C/min, Boltzmann fit, ctDNA alone 81.3 °C
  melting temperature (Tm) of ctDNA with drug: 90.3 °C
Calf Thymus-DNA (ctDNA); versus ctDNA without drugs (81 °C)
  increase in melting temperature of ctDNA: about 9 °C
Calf Thymus DNA (ctDNA); CD studies with ctDNA 0.2 mg/mL, 10 mM Tris-HCl pH 7.5
  DNA binding mode: mainly by intercalation
Calf Thymus DNA (ctDNA); ctDNA 0.2 mg/mL, 10 mM Tris-HCl pH 7.5, room temperature, increasing drug concentration, mean of three scans
  change of negative CD band of ctDNA at λ = 245 nm: shifting to zero level
